The values below come from paper PMC10455339, “Combining the Peptide RWQWRWQWR and an Ethanolic Extract of Bidens pilosa Enhances the Activity against Sensitive and Resistant Candida albicans and C. auris Strains” (Journal of Fungi, 2023).

In brackets after ≈: the same amount, converted by molar mass. Several values for one entry are separate records, joined by “and”; a condition that tells them apart may be missing. Identical values can stand only once. Like-named read-outs stand apart in the source and are kept apart here. Ends that are not written are not given here.

One experiment deals with C. auris 537-PUJ-HUSI. Briefly: Antifungal activity (MIC/MFC), broth microdilution. Format: cell-based, Candida auris. Particulars: FLC- and AmB-resistant isolate, n = 3; for MIC: CLSI M27-A4 modified, RPMI 1640, 37 °C, 48 h, MIC = 50% growth inhibition; for MFC: subculture on SDA 24 h 37 °C, MFC = eliminates 100% of growth. The method, then:
(§1) For the determination of the MICs, the guidelines of the Clinical Laboratory Standards Institute (CLSI BMD-M27-A4) were used with some modifications. Serial dilutions were made, for peptides from 6.25 to 200 µg/mL and for extracts from 31.2 to 2000 µg/mL, with RPMI 1640 medium in a 96-well microdilution plate (100 µL), and then 100 µL of the adjusted inoculum (0.5–2.5 × 10^3 cells/mL) was added and incubated at 37 °C, and visual and spectrophotometric reading (595 nm) was performed at 48 h. Controls: growth control in RPMI or DMSO, control with a known antifungal: FLC, C. albicans SC5314 (1 µg/mL), C. albicans 256 (64 µg/mL), C. auris 435 (8 µg/mL), and C. auris 537 (128 µg/mL), sterility controls correspond to RPMI medium and SS. The MIC was defined as the minimum concentration of peptide or extract that inhibited 50% of growth compared to the control. To determine the minimal fungicidal concentration (MFC), from the concentrations where no growth was observed, including the controls, a subculture was made on SDA and incubated for 24 h at 37 °C. The MFC was defined as the minimum concentration of peptide or extract that eliminated 100% of the growth compared to the control (n = 3).
On the technique in general: Dilution methods test growth across graded concentrations, often in twofold steps.

Another experiment has as its system C. auris 435-PUJ-HUSI. Description: Antifungal activity (MIC/MFC), broth microdilution. Particulars: FLC-sensitive isolate, n = 3; for MIC: CLSI M27-A4 modified, RPMI 1640, 37 °C, 48 h, MIC = 50% growth inhibition; for MFC: subculture on SDA 24 h 37 °C, MFC = eliminates 100% of growth. Type of experiment: cell-based, Candida auris. The method, then:
as §1

The next experiment deals with C. albicans SC5314. Description: microbe, parasite or virus in culture. Format: cell-based, Candida albicans. The following applies: n = 3; for MIC: CLSI M27-A4 modified, RPMI 1640, 37 °C, 48 h, MIC = 50% growth inhibition; for MFC: subculture on SDA 24 h 37 °C, MFC = eliminates 100% of growth. The method, then: as §1
For a further experiment, the system named is C. albicans 256-PUJ-HUSI. Briefly: Antifungal activity (MIC/MFC), broth microdilution. Type of experiment: cell-based, Candida albicans. Particulars: FLC-resistant isolate, n = 3; for MIC: CLSI M27-A4 modified, RPMI 1640, 37 °C, 48 h, MIC = 50% growth inhibition; for MFC: subculture on SDA 24 h 37 °C, MFC = eliminates 100% of growth. The method, then:
as §1

The test system of a further experiment is C. albicans. The following applies: cited from earlier work. The text has this: Antifungal activity of other phenolic acids, such as chlorogenic acid, has been reported against Candida spp. resistant to FLC, generating a death process similar to apoptosis.
Where [1] appears, read: Candidozyma auris, 537PUJHUSI, read-out: MIC.
[2] abbreviates: Candidozyma auris, 537PUJHUSI, read-out: MFC.
The mark [3] stands for this setting: Candidozyma auris, 435PUJHUSI, read-out: MIC.
Setting [4] is: Candidozyma auris, 435PUJHUSI, read-out: MFC.
Where [5] appears, read: Candida albicans, SC5314, read-out: MIC.
Setting [6] is: Candida albicans, SC5314, read-out: MFC.
Setting [7] is: Candida albicans, 256PUJHUSI, read-out: MIC.
Where [8] appears, read: Candida albicans, 256PUJHUSI, read-out: MFC.
Where [9] appears, read: reported against other C. albicans strains.
Setting [10] is: reported against C. albicans strains.

What is called MFC is the smallest concentration meeting the test's criterion for killing the fungus. Take `O=C(O)/C=C/c1ccc(O)c(O)c1` [Caffeic acid]: the MIC with C. auris 537-PUJ-HUSI (setting [1]), with C. auris 435-PUJ-HUSI (setting [3]), with C. albicans SC5314 (setting [5]) and with C. albicans 256-PUJ-HUSI (setting [7]) was above 2000 µg/mL each time. Moreover, the MFC with C. auris 537-PUJ-HUSI (setting [2]), in the experiment with C. auris 435-PUJ-HUSI (setting [4]), in the experiment on C. albicans SC5314 (setting [6]) and in the experiment with C. albicans 256-PUJ-HUSI (setting [8]) was above 2000 µg/mL each time.
As to “RWQWHomoFQWR [[^5HomoF]-R-1-R, RWQWHomoFQWR, position 5 replaced by Homophenylalanine]”, the MIC with C. auris 537-PUJ-HUSI is > 200 μg/mL and > 134 μM; against C. auris 435-PUJ-HUSI, > 200 μg/mL and > 134 μM; against C. albicans SC5314 it was 200 μg/mL and 134 μM; in the experiment on C. albicans 256-PUJ-HUSI, 200 μg/mL and 134 μM. In addition, the MFC in the experiment on C. auris 537-PUJ-HUSI was > 200 μg/mL and > 134 μM; in the experiment with C. auris 435-PUJ-HUSI, > 200 μg/mL and > 134 μM; against C. albicans SC5314 it was > 200 μg/mL and > 134 μM; in the experiment on C. albicans 256-PUJ-HUSI, > 200 μg/mL and > 134 μM.
In the case of “FKCRRWQWRMKKLGA [bLF (or LFB) 17–30, short peptide derived from LfcinB, …]”, the MIC in the experiment on C. albicans (setting [9]) is 5 to 10 µM.
In the case of “RWQWNalQWR [[^5Nal]-R-1-R, RWQWNalQWR, position 5 replaced by Naphthylalanine]”, the MIC against C. auris 435-PUJ-HUSI was > 200 μg/mL and > 131 μM; in the experiment on C. albicans SC5314, > 200 μg/mL and > 131 μM. Besides, the minimal fungicidal concentration (MFC) was > 200 μg/mL and > 131 μM in the experiment on C. auris 435-PUJ-HUSI; > 200 μg/mL and > 131 μM against C. albicans SC5314.
Consider “FKCRRWQWRMKKLGA [LfcinB-20, short peptide derived from LfcinB, printed …]”, for which the MIC in the experiment on C. albicans (setting [10]) was 8 µg/mL.
As for “Lfcin B-18-42: short peptide derived from LfcinB (FKCRRWQWRMKKLGAPSITCVRRAF; ends and bridges not checked; cysteine pairing not given here; UniProt P24627 36-60, looked up, fragment)”, the MIC with C. albicans (setting [10]) was 100 µg/mL.
With `O=C(/C=C/c1ccc(O)c(O)c1)O[C@@H](C(=O)O)[C@@H](O)C(=O)O` [Caftaric acid], the MIC in the experiment with C. auris 537-PUJ-HUSI (setting [1]), in the experiment on C. auris 435-PUJ-HUSI (setting [3]), in the experiment with C. albicans SC5314 (setting [5]) and with C. albicans 256-PUJ-HUSI (setting [7]) was above 1000 µg/mL in each case. Besides, the MFC in the experiment on C. auris 537-PUJ-HUSI (setting [2]), in the experiment on C. auris 435-PUJ-HUSI (setting [4]), with C. albicans SC5314 (setting [6]) and in the experiment on C. albicans 256-PUJ-HUSI (setting [8]) was above 1000 µg/mL throughout.
With “FKCRRWQWRM [Peptide 2, short peptide derived from LfcinB, …]”, the MIC with C. albicans (setting [9]) is 17.3 to 17.5 µM.
Regarding “LfcinB: Bovine lactoferricin, AMP derived from bovine lactoferrin (FKCRRWQWRMKKLGAPSITCVRRAF; ends and bridges not checked; cysteine pairing not given here; UniProt P24627 36-60, looked up)”, the MIC in the experiment with C. albicans (setting [10]) was 0.8 to 400 µg/mL.
Consider “RWQWRM [Peptide 5, short peptide derived from LfcinB, RWQWRM]”, for which the MIC in the experiment on C. albicans (setting [9]) is 500 µM.
Turning to “GAPSITCVRRAF [Peptide 3, short peptide derived from LfcinB, …]”, in the experiment on C. albicans (setting [9]), the MIC is 635 µM.
As to `O=C(O)c1cc(O)c(O)c(O)c1` [Gallic acid], the MIC with C. auris 537-PUJ-HUSI (setting [1]) came out at 62.5 µg/mL (≈ 0.367 mM); in the experiment with C. auris 435-PUJ-HUSI (setting [3]) it was 125 µg/mL (≈ 0.735 mM); in the experiment on C. albicans SC5314 (setting [5]), 125 µg/mL (≈ 0.735 mM); in the experiment with C. albicans 256-PUJ-HUSI (setting [7]), 62.5 µg/mL (≈ 0.367 mM). Besides, the MFC in the experiment with C. auris 537-PUJ-HUSI (setting [2]) was determined as 1000 µg/mL (≈ 5.88 mM); in the experiment with C. auris 435-PUJ-HUSI (setting [4]), 1000 µg/mL (≈ 5.88 mM); in the experiment on C. albicans SC5314 (setting [6]), 250 µg/mL (≈ 1.47 mM); in the experiment with C. albicans 256-PUJ-HUSI (setting [8]), 125 µg/mL (≈ 0.735 mM).
With `O=C(/C=C/c1ccc(O)c(O)c1)O[C@@H]1C[C@](O)(C(=O)O)C[C@@H](O)[C@H]1O` [Chlorogenic acid], the MIC in the experiment with C. auris 537-PUJ-HUSI (setting [1]), in the experiment with C. auris 435-PUJ-HUSI (setting [3]), with C. albicans SC5314 (setting [5]) and with C. albicans 256-PUJ-HUSI (setting [7]) was above 1000 µg/mL each time. In addition, the MFC in the experiment on C. auris 537-PUJ-HUSI (setting [2]), in the experiment with C. auris 435-PUJ-HUSI (setting [4]), in the experiment with C. albicans SC5314 (setting [6]) and in the experiment with C. albicans 256-PUJ-HUSI (setting [8]) was above 1000 µg/mL in each case.
As for “RRWQWRMKK [Lfcin B-9, short peptide derived from LfcinB, …]”, the MIC in the experiment with C. albicans (setting [10]) is recorded as 25,000–32,000 μg/mL.
